According to ChEMBL document CHEMBL5214893, “Saponins from Saffron Corms Inhibit the Gene Expression and Secretion of Pro-Inflammatory Cytokines” (J Nat Prod, 2021):
The source made the active and inactive calls.

Columns and labels:
Assay type in all cases: functional, cell-based
Settings in all cases: time 48.0 hrs
[1] = system: HaCaT; experiment: Downregulation of TNF-alpha/IFN-gamma induced RANTES expression in human HaCaT cells at 20 uM preincubated for 24 hrs followed by stimulation and measured after […] by ELISA analysis
[2] = system: HaCaT; experiment: Effect on TNF-alpha/IFN-gamma-induced RANTES secretion in human HaCaT cells at 1 uM preincubated for 24 hrs followed by stimulation and measured after […] by ELISA analysis
[3] = system: HaCaT; experiment: […] of TNF-alpha/IFN-gamma induced MCP-1 expression in human HaCaT cells at 20 uM preincubated for 24 hrs followed by stimulation and measured after […] by ELISA analysis
[4] = system: HaCaT; experiment: Effect on TNF-alpha/IFN-gamma induced- MCP-1 secretion in human HaCaT cells at 1 uM preincubated for 24 hrs followed by stimulation and measured after […] by ELISA analysis
[5] = system: HaCaT; experiment: Effect on TNF-alpha/IFN-gamma-induced RANTES secretion in human HaCaT cells at 20 uM preincubated for 24 hrs followed by stimulation and measured after […] by ELISA analysis

Measured: Activity

C[C@@H]1O[C@@H](OCCCCCCC(=O)CCCCCCC(CC(=O)O[C@@H]2[C@H](O)[C@@H](O[C@@H]3O[C@@H](C)[C@H](O[C@@H]4OC[C@@H](O)[C@H](O)[C@H]4O)[C@@H](O)[C@H]3O[C@@H]3OC[C@H](O)[C@H](O)[C@H]3OC3O[C@H](CO)[C@H](O)[C@H](O)[C@H]3O)[C@H](OC(=O)[C@]34CCC(C)(C)C[C@H]3C3=CC[C@@H]5[C@@]6(C)CC[C@H](O[C@@H]7O[C@H](C(=O)O)[C@H](O)[C@H](O)[C@H]7O)C(C)(C)[C@@H]6CC[C@@]5(C)[C@]3(C)C[C@H]4O)O[C@@H]2C)O[C@H]2O[C@H](C)[C@@H](O)[C@H](O)[C@@H]2O)[C@H](O)[C@H](O)[C@H]1O (stereo partly specified)
active: [1] | [2] | [3] | [4]

C[C@]12CCC(=O)C=C1CC[C@@H]1[C@@H]2[C@@H](O)C[C@@]2(C)[C@H]1CC[C@]2(O)C(=O)CO
active: [1] | [3] | [5]

C[C@@H]1O[C@@H](OCCCCCCC(=O)CCCCCCC(CC(=O)O[C@@H]2[C@H](O)[C@@H](O[C@@H]3O[C@@H](C)[C@H](O[C@@H]4OC[C@@H](O)[C@H](O)[C@H]4O)[C@@H](O)[C@H]3O[C@@H]3OC[C@H](O)[C@H](O)[C@H]3OC3O[C@H](CO)[C@H](O)[C@H](O)[C@H]3O)[C@H](OC(=O)[C@]34CCC(C)(C)C[C@H]3C3=CC[C@@H]5[C@@]6(C)CC[C@H](O[C@@H]7O[C@H](C(=O)O)[C@@H](O)[C@H](O)[C@H]7O)C(C)(C)[C@@H]6CC[C@@]5(C)[C@]3(C)C[C@H]4O)O[C@@H]2C)O[C@H]2O[C@H](C)[C@@H](O)[C@H](O)[C@@H]2O)[C@H](O)[C@H](O)[C@H]1O (stereo partly specified)
active: [1] | [2] | [3] | [4]
